Reference: paper PMC4409337, “Immucillins Impair Leishmania (L.) infantum chagasi and Leishmania (L.) amazonensis Multiplication In Vitro” (PLoS ONE, 2015)
Where two headings read alike, the source gives them in different places.

How the values were obtained:
[1] = system: NH of L. (L.) major; parameters: method as in PMID 10409664; conditions: unit inferred; cited from earlier work
[2] = system: Nucleoside hydrolase NH36 of L. (L.) donovani; format: biochemical, Leishmania (L.) donovani; conditions: substrate of NH36; for k cat /K m: catalytic efficiency; for K m / k cat: 25°C, 50 mM Hepes pH 7.4
Protocol: (§1) BL21DE3 E.coli were transformed with the synthetic plasmid pET 28b encoding the gene of NH36 of Leishmania (L.) donovani (EMBL, Genbank and DDJB data bases, access number AY007193) with a His6tag at the C-terminal. Expression was induced with 0.5 mM IPTG and overnight incubation at 20°C. Purification of NH36 was performed on a column of Ni-NTA Superflow resin (Qiagen, USA) eluted by a stepwise imidazole gradient and monitored by SDS-polyacrylamide gel electrophoresis and protein assay. The extinction coefficient of NH36 is 21.437 mM^-1 cm^-1 at 280 nm, as calculated with the ProtParam program from ExPASy, and was used to estimate protein concentration (http://ca.expasy.org/seqanalref/). The yield of NH36 after purification was 11.87 mg per Liter of bacterial growth culture. Non-specific His-proteins with weak interactions were eluted with 50–100 mM imidazole (S1 Fig). The purified NH36 started to elute with 150 mM imidazole. We used 250 mM of imidazol in elution buffer for purification of NH36.
Steady-state kinetic rates for NH36 were determined on the substrates inosine, guanosine, adenosine, uridine and cytidine. Hypoxanthine and adenine formation were coupled to xanthine oxidase (12.9 mM^-1 cm^-1 at 293 nm and 15.2 mM^-1 cm^-1 at 305 nm, respectively), and the others were followed by direct uv absorbance changes resulting from cleavage of the N-ribosidic bond. Reaction mixtures contained 50 mM Hepes (pH 7.4), 100 mM NaCl and 5 mM of DTT. One unit, and 0.1 unit of xanthine oxidase (XOD) were used as the coupling enzyme to the adenosine and inosine assays, respectively. Spectral changes for hydrolysis of guanosine, uridine and cytidine were 5.4 mM^-1 cm^-1 at 257 nm,1.8 mM^-1 cm^-1 at 280 nm and 1.8 mM^-1 cm^-1 at 288 nm, respectively. Variable concentrations of substrate and appropriate amounts of purified NH36 were added in all assays. The hydrolysis of nucleosides to bases and ribose was followed by continuous recording of optical absorbance after addition of the enzyme, in a CARY 300 UV-visible spectrophotometer. Control rates with no enzyme addition were subtracted from initial rates. Reactions with substrates were conducted at 25°C using 1 cm path length cuvettes containing 1 mL reaction volumes. Kinetic parameters of NH36 were obtained by fitting initial rates to the Michaelis−Menten equation using GraFit 5 (Erithacus Software).

[3] = system: intracellular amastigotes of L. (L.) infantum chagasi; conditions: ref 44; read-out: IC50 against intracellular amastigotes; cited from earlier work
[4] = system: L. (L.) amazonensis promastigotes; experiment: In vitro growth of promastigotes in FBS supplemented Schneider's insect medium; format: cell-based, Leishmania (L.) amazonensis; conditions: Leishmania amazonensis; for inhibition at 500 µM: read-out: percent inhibition on L. (L.) amazonensis replication; for IC50: read-out: IC50 (CI 95%) on L. (L.) amazonensis promastigotes in vitro growth
Excerpt: The strain of Leishmania (L.) infantum chagasi MHOM/BR/1974/PP75 was obtained from the Leishmania Type Culture Collection (Fundacão Oswaldo Cruz, Rio de Janeiro, RJ, Brazil) and the strain of Leishmania (L.) amazonensis (MHOM/BR/1975/Josefa) was kindly given by Professor Rosâ[…] from Universidade Federal do Rio de Janeiro. Promastigotes were maintained by weekly transfers in screw-capped glass tubes containing Schneider's insect medium (Sigma Aldrich, MO, USA), pH 7.0, supplemented with 10% Fetal Bovine Serum (FBS) at 26°C. Stock solutions (20 mM) of immucillins IA […] prepared using Milli-Q purified water. Log phase promastigotes of L. (L.) infantum chagasi and L. […] Promastigotes were recorded in a Neubauer chamber after 24, 48, 72 and 96 hours of incubation at 26°C. […] We also assayed the possibility of reversing the inhibitory effect of IA in RPMI medium by the addition of adenosine to the culture medium. The concentration of adenosine in Schneider s insect serum supplemented medium was assessed by HPLC using a C-18 reverse-phase column as described.

[5] = system: L. (L.) infantum chagasi promastigotes; experiment: as above; format: cell-based, Leishmania (L.) infantum chagasi; conditions: Leishmania infantum; for inhibition at 500 µM: after 96 h of culture, read-out: percent inhibition on L. (L.) infantum chagasi promastigote growth
Excerpt: The strain of Leishmania (L.) infantum chagasi MHOM/BR/1974/PP75 was obtained from the Leishmania Type Culture Collection (Fundacão Oswaldo Cruz, Rio de Janeiro, RJ, Brazil) and the strain of Leishmania (L.) amazonensis (MHOM/BR/1975/Josefa) was kindly given by Professor Rosâ[…] from Universidade Federal do Rio de Janeiro. Promastigotes were maintained by weekly transfers in screw-capped glass tubes containing Schneider's insect medium (Sigma Aldrich, MO, USA), pH 7.0, supplemented with 10% Fetal Bovine Serum (FBS) at 26°C. […] Log phase promastigotes of L. (L.) infantum chagasi and L. […] Promastigotes were recorded in a Neubauer chamber after 24, 48, 72 and 96 hours of incubation at 26°C. […] The concentration of adenosine in Schneider s insect serum supplemented medium was assessed by HPLC using a C-18 reverse-phase column as described.

[6] = molecular target: T1, Nucleoside hydrolase NH36 (Leishmania donovani, UniProt Q8WQX2); experiment: Ki determination: inhibition of NH36 activity by immucillins; format: biochemical, Leishmania (L.) donovani; conditions: 10 mM inosine as substrate, 0.5 nM NH36, pH 7.4, room temperature
T1 sequence (Q8WQX2 1-314): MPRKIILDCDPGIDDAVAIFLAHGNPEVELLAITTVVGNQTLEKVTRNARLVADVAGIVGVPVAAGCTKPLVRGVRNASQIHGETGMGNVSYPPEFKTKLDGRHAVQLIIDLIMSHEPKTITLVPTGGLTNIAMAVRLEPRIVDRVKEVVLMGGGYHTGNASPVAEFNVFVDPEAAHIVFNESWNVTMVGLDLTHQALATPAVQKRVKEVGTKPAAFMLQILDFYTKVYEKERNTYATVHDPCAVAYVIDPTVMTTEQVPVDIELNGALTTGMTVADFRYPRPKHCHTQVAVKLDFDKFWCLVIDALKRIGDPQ
Protocol: as §1
The reaction mixtures contained 10 mM inosine as substrate, 50 mM Hepes (pH 7.4), 100 mM KCl, 5 mM DTT and 1 unit XOD. The hydrolysis of inosine to hypoxanthine and ribose was followed by continuous reading of optical absorbance at 293 nm, using variable concentrations of inhibitors in a CARY 300UV-visible spectrophotometer. Controls without enzyme and without inhibitors were included in all inhibition assays. The inhibition constant for each immucillin was obtained, using GraFit 5 (Erithacus Software), by fitting initial rates with variable inhibitor concentrations to the equation (vi/v0 = [S] / Km + [S] + Km[I] / Ki), where v i is the initial rate in the presence of the inhibitor, v 0 is the initial rate in the absence of the inhibitor, K m is the Michaelis constant for inosine, [S] and [I] are inosine and inhibitor concentrations, respectively, and Ki is the inhibition constant.

[7] = in vitro; conditions: female, BALB/c, mouse
Protocol: (§2) Alternatively, the immucillins were added at 0, 24 and 48 h and viability assessed after 72h. […] The amastigote growth was assessed 24 h after the last drug addition, on 200 cells in Giemsa stained coverslips and expressed as phagocytic index = percent of infected macrophages x average number of intracellular amastigotes. […] All experiments with mice were reviewed and approved by the Animal Care and Use Committee of the Instituto de Biofísica Carlos Chagas Fo.-UFRJ (CAUAP-CONCEA, Brazil, IMPPG-016) and were performed according to the guidelines of the National Institutes of Health, USA. We made all efforts in order to minimize animal suffering.

[8] = system: L. (L.) infantum chagasi promastigotes; experiment: Transmission electron microscopy of treated promastigotes; format: cell-based, Leishmania (L.) infantum chagasi; conditions: 10 μM, 72 h
Excerpt: The cells were washed with Milli Q water, dehydrated in increasing concentration of acetone and embedded in Epon (1: 1) (PolyBed 812). The ultrathin sections were obtained, contrasted with 5% uranyl acetate and lead citrate and observed under a Joel 1200 electron microscope.

[9] = system: intracellular amastigotes of L. (L.) infantum chagasi; experiment: Replication of intracellular amastigotes in infected peritoneal macrophages (phagocytic index); format: cell-based, Leishmania (L.) infantum chagasi
Protocol: as §2, with “Alternatively, the immucillins were added at 0, 24 and 48 h and viability assessed after 72h.” left out

[10] = single addition at 0 h, evaluated after 48 hours, 26°C, read-out: IC50 (CI 95%) on L. (L.) infantum chagasi promastigotes in vitro growth
[11] = single addition at 0 h, evaluated after 48 hours, 26°C

Structure (SMILES)	IC50 [3] [µM]	inhibition at 500 µM ([4]; 500 μM, after 96 h of culture) [%]	IC50 [5, 10] [µM]	inhibition at 500 µM [5] [%]	Ki [6] [µM]	IC50 [4, 11] [µM]	other results
Nc1ncnc2c1ncn2[C@@H]1O[C@H](CO)[C@@H](O)[C@H]1O [Adenosine]							k cat [1]: 0.57 s⁻¹; k cat /K m [2]: 53000 M⁻¹ s⁻¹; K m [2]: 70 ± 30 µM; k cat [2]: 3.7 ± 0.1 s ^-1
C[C@@H]1[C@H](O)[C@@H](C)/C=C/C=C/C=C/C=C/C=C/C=C/C=C/[C@H](O[C@@H]2O[C@H](C)[C@@H](O)[C@H](N)[C@@H]2O)C[C@@H]2O[C@](O)(C[C@@H](O)C[C@@H](O)[C@H](O)CC[C@@H](O)C[C@@H](O)CC(=O)O[C@H]1C)C[C@H](O)[C@H]2C(=O)O [Amphotericin]	0.04						
CC[C@H]1OC(=O)[C@H](C)[C@@H](O[C@H]2C[C@@](C)(OC)[C@@H](O)[C@H](C)O2)[C@H](C)[C@@H](O[C@@H]2O[C@H](C)C[C@H](N(C)C)[C@H]2O)[C@](C)(O)C[C@@H](C)CN(C)[C@H](C)[C@@H](O)[C@]1(C)O [Azitromycin]	19.9						
Nc1ccn([C@@H]2O[C@H](CO)[C@@H](O)[C@H]2O)c(=O)n1 [Cytidine]							k cat [1]: 0.36 s⁻¹; k cat /K m [2]: 9300 M⁻¹ s⁻¹; K m [2]: 1,403 ± 282 μM; k cat [2]: 13.1 ± 1.1 s ^-1
Nc1ncnc2c(CN3C[C@H](CO)[C@@H](O)C3)c[nH]c12 [DIA]		16	109	69	> 5		
Nc1nc2c(CN3C[C@H](CO)[C@@H](O)C3)c[nH]c2c(=O)[nH]1 [DIG]		67	23.7	68	> 5	40	
O=c1[nH]cnc2c(CN3C[C@H](CO)[C@@H](O)C3)c[nH]c12 [DIH]		89	1.8	89	> 5	3.4	
Nc1nc2c(ncn2[C@@H]2O[C@H](CO)[C@@H](O)[C@H]2O)c(=O)[nH]1 [Guanosine]							k cat /K m [2]: 1200 M⁻¹ s⁻¹; K m [2]: 380 ± 153 µM; k cat [2]: 0.47 ± 0.1 s ^-1
O=c1[nH]cnc2c([C@@H]3N[C@H](CO)[C@@H](O)[C@H]3O)c[nH]c12 [IH]					0.019		CC50 at 48 h [7]: 950 µM; inhibition at 500 µM ([4]; 96 h): 71%; IC50 [4]: 49.7 µM; IC50 ([5]; read-out: IC50 (CI 95%) on L. (L.) infantum chagasi promastigotes in vitro growth, single addition at 0 h, evaluated after 48 hours, 26°C): 30.6 µM; IC50 ([5]; read-out: IC50 on promastigote growth, daily addition, drugs added at 0, 24 and 48 h, after 48h): 6.7 µM; IC50 ([5]; read-out: IC50 on promastigote growth, daily addition, drugs added at 0, 24 and 48 h, at 72 and 96 h): < 0.05 µM; effect on cellular ultrastructure of promastigotes [8]: alterations and swelling of kinetoplasts; reduction in the number of intracellular amastigotes ([9]; 10 μM added daily at 0, 24 and 48 h): 95%; EC50 ([9]; Leishmania infantum, Peritoneal macrophage, read-out: EC50 (CI 95%)): 3.69 µM; decrease of intracellular amastigote parasite load ([9]; low micromolar concentrations, single to daily protocol): 74–95%; reduction in the number of intracellular amastigotes ([9]; single 10 μM dose at 0 h, compared to untreated controls): 70%
CCCCCCCCCCCCCCCCOP(=O)([O-])OCC[N+](C)(C)C [Miltefosine]	4.4						
NC[C@@H]1O[C@H](O[C@H]2[C@@H](O)[C@H](O[C@@H]3[C@@H](O)[C@H](N)C[C@H](N)[C@H]3O[C@H]3O[C@H](CO)[C@@H](O)[C@H](O)[C@H]3N)O[C@@H]2CO)[C@H](N)[C@@H](O)[C@@H]1O [Paramomycin]	337						
Nc1ncnc2c(CNC(CO)CO)c[nH]c12 [SMIA]		71	349	71	> 5	157	
Nc1nc2c(CNC(CO)CO)c[nH]c2c(=O)[nH]1 [SMIG]			25.8	70	1.8	29.4	
